In one assay the test system is HL-60. Description: Cell differentiation activity towards HL-60 cells was assessed in terms of NTB reactivity. Type of assay: functional, Homo sapiens.
For another assay, the species on record is Rattus norvegicus. Description: Bone calcium mobilization was tested on normal SD male rats and serum calcium level was reported. Type of assay: functional. Also on record: unit not given beside the values.
Assay [1] addresses T1, Vitamin D3 receptor (Bos taurus) (UniProt Q28037).
T1 sequence (whole entry): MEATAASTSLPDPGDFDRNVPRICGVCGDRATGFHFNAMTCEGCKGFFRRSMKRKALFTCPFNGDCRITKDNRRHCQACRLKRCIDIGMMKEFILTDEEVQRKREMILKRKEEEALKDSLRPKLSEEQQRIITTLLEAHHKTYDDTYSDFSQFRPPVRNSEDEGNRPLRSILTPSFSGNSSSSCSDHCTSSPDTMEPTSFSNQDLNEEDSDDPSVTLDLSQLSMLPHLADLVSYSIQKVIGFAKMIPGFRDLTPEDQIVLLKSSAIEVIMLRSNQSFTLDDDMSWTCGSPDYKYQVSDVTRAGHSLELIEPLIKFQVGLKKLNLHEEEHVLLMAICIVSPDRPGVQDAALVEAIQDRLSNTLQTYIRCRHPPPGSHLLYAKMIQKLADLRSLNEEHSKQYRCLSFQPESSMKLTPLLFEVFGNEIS
Nature of the assay: Affinity for bovine thymus VDR vitamin D receptor.

As to `C=C1/C(=C\C=C2/CCC[C@]3(C)[C@@H]([C@H](C)CCCC(C)(C)O)CC[C@@H]23)C[C@H](O)[C@H](C)[C@@H]1O`, the Activity with HL-60 was 730; in the assay listed under Rattus norvegicus, 144; in assay [1], 17.
Consider `C=C1/C(=C\C=C2/CCC[C@]3(C)[C@@H]([C@H](C)CCCC(C)(C)O)CC[C@@H]23)C[C@@H](O)[C@H](C)[C@H]1O`, for which the Activity was 3 in the assay with HL-60 and below 0.1 in assay [1].
As to `C=C1/C(=C\C=C2/CCC[C@]3(C)[C@@H]([C@H](C)CCCC(C)(C)O)CC[C@@H]23)C[C@@H](O)C[C@@H]1O` [CALCITRIOL], the Activity (with HL-60; in the assay filed under Rattus norvegicus; in assay [1]) was 100 in each case.
Turning to `C=C1/C(=C\C=C2/CCC[C@]3(C)[C@@H]([C@H](C)CCCC(C)(C)O)CC[C@@H]23)C[C@@H](O)[C@H](C)[C@@H]1O`, the Activity is 59000 with HL-60, 655 in the assay listed under Rattus norvegicus and 1200 in assay [1].
Regarding `C=C1/C(=C\C=C2/CCC[C@]3(C)[C@@H]([C@H](C)CCCC(C)(C)O)CC[C@@H]23)C[C@H](O)[C@H](C)[C@H]1O`, the Activity in the assay on HL-60 is 1; in assay [1], below 0.1.
On the same counts, the results for `C=C1/C(=C\C=C2/CCC[C@]3(C)[C@@H]([C@H](C)CCCC(C)(C)O)CC[C@@H]23)C[C@H](O)[C@@H](C)[C@@H]1O` are 6 and below 0.1.
Regarding `C=C1/C(=C\C=C2/CCC[C@]3(C)[C@@H]([C@H](C)CCCC(C)(C)O)CC[C@@H]23)C[C@H](O)[C@@H](C)[C@H]1O`, the Activity is 190 in the assay on HL-60, 19 in the assay filed under Rattus norvegicus and 7 in assay [1].
With `C=C1/C(=C\C=C2/CCC[C@]3(C)[C@@H]([C@H](C)CCCC(C)(C)O)CC[C@@H]23)C[C@@H](O)[C@@H](C)[C@H]1O`, the Activity in the assay on HL-60 was 1; in assay [1], below 0.1.
For `C=C1/C(=C\C=C2/CCC[C@]3(C)[C@@H]([C@H](C)CCCC(C)(C)O)CC[C@@H]23)C[C@@H](O)[C@@H](C)[C@@H]1O`, the Activity in the assay on HL-60 is 2600; in the assay filed under Rattus norvegicus, 115; in assay [1], 160.
